Test results published in ChEMBL document CHEMBL5143702, “Discovery of novel bis-evodiamine derivatives with potent antitumor activity” (Bioorg Med Chem, 2022).
≈ marks a conversion by molar mass, not a printed value. One block for each compound: values may come before it. Calls of active or inactive are those of the source. No cut-off for these calls is given here.

Legend:
[1] = In-vitro cytotoxic activity against human HUVEC cells incubated for 72 hrs by CCK8 assay; format: toxicity, cell-based
A549 = test: In-vitro antitumor activity against human A549 cells incubated for 72 hrs by CCK8 assay; format: functional, cell-based; conditions: A549, 72 h
HCT-116 [2] = test: In-vitro antitumor activity against human HCT-116 cells incubated for 72 hrs by CCK8 assay; format: functional, cell-based; conditions: HCT-116, 72 h
MCF7 = test: In-vitro antitumor activity against human MCF7 cells incubated for 72 hrs by CCK8 assay; format: functional, cell-based; conditions: MCF7, 72 h
HCT-116 [3] = test: Inhibition of cell migration of human HCT-116 cells at 0.25 uM incubated for 24 hrs by wound healing assay; format: functional, cell-based
HCT-116 [4] = test: Induction of cell cycle arrest in human HCT-116 cells assessed as accumulation at S phase at 0.01 uM incubated for 48 hrs by flow cytometry (reference value: 34.21%); format: functional
HCT-116 [5] = test: Induction of cell cycle arrest in human HCT-116 cells assessed as reduction in Cdc25c expression at 0.05 to 1.5 uM incubated for 24 hrs by Western blot analysis; format: functional, cell-based; conditions: dose 0.05-1.5 µM
HCT-116 [6] = test: Induction of cell cycle arrest in human HCT-116 cells assessed as accumulation at S phase at 0.25 uM incubated for 48 hrs by flow cytometry (reference value: 34.21%); format: functional
HCT-116 [7] = test: Induction of apoptosis in human HCT-116 cells assessed as reduction in p53 protein expression at 1.5 uM incubated for 24 hrs by Western blot analysis; format: functional, cell-based
HCT-116 [8] = test: Induction of apoptosis in human HCT-116 cells assessed as decrease in Bcl-2 protein expression at 0.05 to 1.5 uM incubated for 24 hrs by Western blot analysis; format: functional, cell-based; conditions: dose 0.05-1.5 µM
HCT-116 [9] = test: Induction of cell cycle arrest in human HCT-116 cells assessed as accumulation at G1 phase at 0.05 uM incubated for 48 hrs by flow cytometry (reference value: 33.16%); format: functional
HCT-116 [10] = test: Induction of cell cycle arrest in human HCT-116 cells assessed as accumulation at G2/M phase at 0.25 uM incubated for 48 hrs by flow cytometry (reference value: 32.63%); format: functional
HCT-116 [11] = test: Induction of apoptosis in human HCT-116 cells at 0.25 uM incubated for 48 hrs by Annexin V/PI staining based flow cytometry (reference value: 3.86%); format: functional
HCT-116 [12] = test: Induction of apoptosis in human HCT-116 cells assessed as increase in cytochrome C protein expression at 0.05 to 1.5 uM incubated for 24 hrs by Western blot analysis; format: functional, cell-based; conditions: dose 0.05-1.5 µM
HCT-116 [13] = test: Induction of apoptosis in human HCT-116 cells at 0.05 uM incubated for 48 hrs by Annexin V/PI staining based flow cytometry (reference value: 3.86%); format: functional
HCT-116 [14] = test: Induction of apoptosis in human HCT-116 cells assessed as increase in p53 protein expression at 0.05 to 1.5 uM incubated for 24 hrs by Western blot analysis; format: functional, cell-based; conditions: dose 0.05-1.5 µM
HCT-116 [15] = test: Induction of apoptosis in human HCT-116 cells assessed as reduction in cytochrome C protein expression at 1.5 uM incubated for 24 hrs by Western blot analysis; format: functional, cell-based
HCT-116 [16] = test: Induction of cell cycle arrest in human HCT-116 cells assessed as accumulation at G2/M phase at 0.05 uM incubated for 48 hrs by flow cytometry (reference value: 32.63%); format: functional
HCT-116 [17] = test: Induction of apoptosis in human HCT-116 cells at 0.15 uM incubated for 48 hrs by Annexin V/PI staining based flow cytometry (reference value: 3.86%); format: functional
HCT-116 [18] = test: Induction of cell cycle arrest in human HCT-116 cells assessed as accumulation at G1 phase at 0.01 uM incubated for 48 hrs by flow cytometry (reference value: 33.16%); format: functional
HCT-116 [19] = test: Induction of cell cycle arrest in human HCT-116 cells assessed as accumulation at S phase at 0.05 uM incubated for 48 hrs by flow cytometry (reference value: 34.21%); format: functional
HCT-116 [20] = test: Inhibition of cell migration of human HCT-116 cells at 0.01 to 0.15 uM incubated for 24 hrs by wound healing assay; format: functional, cell-based; conditions: dose 0.01-0.15 µM
HCT-116 [21] = test: Inhibition of cell colony formation of human HCT-116 cells at 0.025 to 0.5 uM by clonogenicity assay; format: functional, cell-based; conditions: dose 0.025-0.5 µM
HCT-116 [22] = test: Induction of cell cycle arrest in human HCT-116 cells assessed as accumulation at G2/M phase at 0.01 uM incubated for 48 hrs by flow cytometry (reference value: 32.63%); format: functional
HCT-116 [23] = test: Induction of apoptosis in human HCT-116 cells assessed as increase in Bax protein expression at 0.05 to 1.5 uM incubated for 24 hrs by Western blot analysis; format: functional, cell-based; conditions: dose 0.05-1.5 µM
HCT-116 [24] = test: Induction of apoptosis in human HCT-116 cells at 0.05 to 0.25 uM incubated for 48 hrs by Annexin V/PI staining based flow cytometry; format: functional, cell-based; conditions: dose 0.05-0.25 µM, DDE = dose-dependent effect
HCT-116 [25] = test: Induction of cell cycle arrest in human HCT-116 cells assessed as increase in Cyclin B1 expression at 0.05 to 1.5 uM incubated for 24 hrs by Western blot analysis; format: functional, cell-based; conditions: dose 0.05-1.5 µM
HCT-116 [26] = test: Induction of apoptosis in human HCT-116 cells at 0.1 uM incubated for 48 hrs by Annexin V/PI staining based flow cytometry (reference value: 3.86%); format: functional
HCT-116 [27] = test: Inhibition of cell proliferation of human HCT-116 cells at 0.01 to 10 uM incubated for 48 hrs by RTCA assay; format: functional; conditions: dose 0.01-10 µM
HCT-116 [28] = test: Induction of cell cycle arrest in human HCT-116 cells assessed as accumulation at G1 phase at 0.25 uM incubated for 48 hrs by flow cytometry (reference value: 33.16%); format: functional

IC50 (A549): 610 nM
IC50 (HCT-116 [2]): 170 nM
IC50 (MCF7): 410 nM
SMILES: CN1c2ccc(F)cc2C(=O)N2CCc3c([nH]c4ccc(OC(=O)CCSSCCC(=O)Oc5ccc6[nH]c7c(c6c5)CCN5C(=O)c6cc(F)ccc6N(C)C75)cc34)C21 (configuration not stated)
IC50 at 72 h [1]: 130 nM

IC50 (A549): 680 nM
IC50 (HCT-116 [2]): 32 nM
IC50 (MCF7): 890 nM
SMILES: CN1c2ccc(F)cc2C(=O)N2CCc3c([nH]c4ccc(OC(=O)CCC(=O)Oc5ccc6[nH]c7c(c6c5)CCN5C(=O)c6cc(F)ccc6N(C)C75)cc34)C21 (configuration not stated)
IC50 at 72 h [1]: 210 nM

IC50 (A549): 460 nM
IC50 (HCT-116 [2]): 73 nM
IC50 (MCF7): 44 nM
SMILES: CN1c2ccc(F)cc2C(=O)N2CCc3c([nH]c4ccc(O)cc34)C21 (configuration not stated)
IC50 at 72 h [1]: 260 nM
inhibition (HCT-116 [3]): Active

IC50 (A549): 730 nM
IC50 (HCT-116 [2]): 32 nM
IC50 (MCF7): 200 nM
MIC (HCT-116 [27]): 0.01 µM (≈ 7.71 ng/mL)
SMILES: CN1c2ccc(F)cc2C(=O)N2CCc3c([nH]c4ccc(OC(=O)CCCC(=O)Oc5ccc6[nH]c7c(c6c5)CCN5C(=O)c6cc(F)ccc6N(C)C75)cc34)C21 (configuration not stated)
Activity (HCT-116 [4]): 26.96%
IC50 at 72 h [1]: 580 nM
Activity (HCT-116 [5]): Active
Activity (HCT-116 [6]): 0%
Activity (HCT-116 [7]): Active
Activity (HCT-116 [8]): Active
Activity (HCT-116 [9]): 40.2%
Activity (HCT-116 [10]): 65.23%
Activity (HCT-116 [11]): 75.11%
Activity (HCT-116 [12]): Active
Activity (HCT-116 [13]): 47.78%
Activity (HCT-116 [14]): Active
Activity (HCT-116 [15]): Active
Activity (HCT-116 [16]): 59.8%
Activity (HCT-116 [17]): 58.73%
Activity (HCT-116 [18]): 42.61%
Activity (HCT-116 [19]): 0%
inhibition (HCT-116 [20]): Active
inhibition (HCT-116 [21]): Active
Activity (HCT-116 [22]): 30.43%
Activity (HCT-116 [23]): Active
Activity (HCT-116 [24]): Dde
Activity (HCT-116 [25]): Active
Activity (HCT-116 [26]): 54.32%
inhibition (HCT-116 [27]; DDE = dose-dependent effect): Dde
Activity (HCT-116 [28]): 34.77%

SMILES: CC[C@@]1(O)C(=O)OCc2c1cc1n(c2=O)Cc2cc3ccccc3nc2-1 [CAMPTOTHECIN]
IC50 at 72 h [1]: 12 nM
IC50 (A549): 74 nM
IC50 (HCT-116 [2]): 40 nM
IC50 (MCF7): 21 nM
